Where two headings read alike, the source gives them in different places.
How the values were obtained:
[1] = tested on: ureteric bud cells derived from Tet-On-ELF5-1231A3 iPS cells; assay type: cell-based, human; settings: for effect on AQP2 expression in combination with IBMX: factor added together with IBMX
Experimental: Ureteric bud organoids on Day 6 were prepared from the Tet-On-ELF5-1231A3 iPS cells using the method previously described (WO2021/066076). In a 1.5 mL tube, 10 ureteric bud organoids were collected and washed twice with 500 μL PBS. 100 μL Accutase was added thereto, and the mixture was incubated for 3 minutes at 37° C., 5% CO2. The ureteric bud organoids were completely transformed into single cells by pipetting, and 900 μL DMEM/10% PBS was added thereto to count cells.
To a 24-well plate (6-well, 12-well, 48-well or 96-well plate, or 6-well, 12-well, or 24-well transwell plate may also be used), the necessary amount of suspension was collected to achieve 0.25 to 1.0×10^5 cells/cm^2, and centrifuged at 300 G for 5 minutes. The cell count was preferably 1×10^5 cells/cm^2. After removing the supernatant, cells were resuspended in a medium comprising DMEM/F12 GlutaMAX+B-27 Supplement minus vitamin A having 10% FBS, 1 μM A83-01, and 1 μM IWR-1 (renal collecting duct progenitor cell-induction medium) added thereto, to which 0.125 μg/cm^2 iMatrix-511 silk and 10 μM Y-27632 were added, and the suspension was adjusted and seeded so that each well contains 500 μL of the suspension. 0.1 μM TTNPB may be further added the medium.
The medium may further comprise 0.1 μM TTNPB, 100 nM desmopressin (dDAVP), 10 nM aldosterone, and 100 nM K252a, and preferably a medium comprising 3 agents of TTNPB, dDAVP, and aldosterone is suitable. Thereafter, the medium was replaced once every 2 days, and the induction into the principal cells was completed on Day 4.
The cultured cells were washed twice with PBS, and then, fixed with 4% PFA at 4° C. for 20 minutes. The cells were washed twice with PBS, and then, blocked using 2% normal donkey serum (MERCK)/PBT (PBS/0.25% Triton X-100, Nacalai tesque, Inc.) (blocking solution) at room temperature for 1 hour. Each primary antibody was diluted with the blocking solution at a rate of 1:200, and left to stand with samples at 4° C. for 24 hours. After washing twice with 0.25% PBT, each secondary antibody was diluted with the blocking solution at a rate of 1:500, and left to stand with samples at room temperature for 2 hours. The cells were observed using a microscope such as BZX-700 (Keyence Corporation).

[2] = tested on: renal collecting duct principal cell-containing organoid; assay: Functional evaluation of renal collecting duct principal cell-containing organoids (water uptake, cystoid structure); assay type: cell-based, human; settings: organoid on Day 6 of the induction
Experimental: Ureteric bud organoids on Day 6 were prepared from the Tet-On-ELF5-1231A3 iPS cells using the method previously described (WO2021/066076). The medium was removed and replaced with the renal collecting duct progenitor cell-induction medium of 100 μL/well. 0.1 μM TTNPB may be further added the medium.
3 days later, the medium was replaced with the renal collecting duct principal cell-induction medium of 100 μL/well. The medium may further comprise 0.1 μM TTNPB, 100 nM dDAVP, 10 nM aldosterone, and 100 nM K252a, and preferably a medium comprising 3 agents of TTNPB, dDAVP, and aldosterone is suitable. The medium was replaced once every 2 days, and the preparation of principal cell-containing organoids was completed on Day 6.
The functional evaluation tests were performed on the renal collecting duct principal cell-containing organoids. For the renal collecting duct principal cell-containing organoid on Day 6 of the induction, the medium was replaced with a renal collecting duct principal cell-induction medium, to which 1 μM dDAVP, or with 1 μM dDAVP and 10 μM tolvaptan were added.

[3] = tested on: renal collecting duct principal cells; assay: Apical-basal polarity of AQP2 in renal collecting duct principal cells, transwell culture; assay type: cell-based, human; settings: 100 nM dDAVP added to the medium in the lower chamber
Experimental: Ureteric bud organoids on Day 6 were prepared from the Tet-On-ELF5-1231A3 iPS cells using the method previously described (WO2021/066076). In a 1.5 mL tube, 10 ureteric bud organoids were collected and washed twice with 500 μL PBS. 100 μL Accutase was added thereto, and the mixture was incubated for 3 minutes at 37° C., 5% CO2. The ureteric bud organoids were completely transformed into single cells by pipetting, and 900 μL […] was added thereto to count cells. To evaluate the apical-basal polarity, the cells were seeded on a Transwell 12-well plate (Corning Inc., 3460). Specifically, the necessary amount of suspension was collected to achieve 0.5 to 2×10^5 cells/cm^2, and centrifuged at 300 G for 5 minutes. The cell count was preferably 1×10^5 cells/cm^2. After removing the supernatant, cells were resuspended in the renal collecting duct progenitor cell-induction medium, to which 0.125 μg/cm^2 iMatrix-511 silk and 10 μM Y-27632 were added, and the suspension was adjusted and seeded in the upper chamber so that each well contains 300 μL of the suspension. 0.1 μM TTNPB may be further added the medium. 2 or 3 days later, the medium in the upper chamber was removed, and 300 μL renal collecting duct principal cell-induction medium was placed in the lower chamber. […]

[4] = tested on: mouse renal collecting duct principal cell lines; settings: previously reported (Ando F. et al., Nat Commun. 2018); cited from earlier work
[5] = factor added to principal cell-induction medium excluding IBMX, planar culture
[6] = 400 μM IBMX with 4 μM doxycycline in renal collecting duct progenitor cell-induction medium

In the case of C[C@]12CCC(=O)C=C1CC[C@@H]1[C@@H]2[C@@H](O)C[C@]2(C=O)[C@@H](C(=O)CO)CC[C@@H]12 [ALD, aldosterone], the AQP2 expression [1, 5] is reported as “the AQP2 expression was not promoted” and the “effect on AQP2 expression in combination with IBMX” value (from here on “effect on AQP2 expression”) ([1]; planar culture) is reported as “functioned additively with the addition of IBMX”.

For NC(=O)CC[C@@H]1NC(=O)[C@H](Cc2ccccc2)NC(=O)[C@H](Cc2ccc(O)cc2)NC(=O)[C@@H](N)CSSC[C@@H](C(=O)N2CCC[C@H]2C(=O)N[C@@H](CCCN=C(N)N)C(=O)NCC(N)=O)NC(=O)[C@H](CC(N)=O)NC1=O [AVP, arginine vasopressin], the AQP2 expression [1, 5] was “the AQP2 expression was not promoted” and the “effect on AQP2 expression” value ([1]; planar culture) was “functioned additively with the addition of IBMX”.

For CC(C)Cn1c(=O)n(C)c(=O)c2[nH]cnc21 [IBMX, 3-isobutyl-1-methylxanthine], the AQP2 expression [1, 6] was “early expressed AQP2”, the AVPR2 expression [1, 6] was “expressed AVPR2” and the AQP2 expression ([1]; IBMX added with dDAVP, or with either of AVP and dDAVP, ALD and K252a, planar culture) was “the AQP2 expression was promoted”. The “number of AQP2-expressing cells” value ([1]; IBMX at concentrations up to 400 μM, with 4 μM doxycycline) was “concentration-dependently increased”.

In the case of COC(=O)[C@@]1(O)C[C@H]2O[C@]1(C)n1c3ccccc3c3c4c(c5c6ccccc6n2c5c31)C(=O)NC4 [K252a], the AQP2 expression [1, 5] is reported as “the AQP2 expression was not promoted” and the “effect on AQP2 expression” value ([1]; planar culture) is reported as “functioned additively with the addition of IBMX”.

In the case of NC(=O)CC[C@@H]1NC(=O)[C@H](Cc2ccccc2)NC(=O)[C@H](Cc2ccc(O)cc2)NC(=O)CCSSC[C@@H](C(=O)N2CCC[C@H]2C(=O)N[C@H](CCCN=C(N)N)C(=O)NCC(N)=O)NC(=O)[C@H](CC(N)=O)NC1=O [dDAVP, 1-desamino-8-D-arginine vasopressin], the “effect on AQP2 expression” value ([1]; planar culture) is reported as “functioned additively with the addition of IBMX”, the “water uptake and cystoid structure formation” value ([2]; 1 μM dDAVP) is reported as “water uptake was promoted from the next day, and a cystoid structure was formed” and the “polarization of AQP2 expression” value [3] is reported as “increase in polarization of AQP2 expression to the contralateral side”. For the same compound, the “AQP2 expression and apical polarization” value [4] was “promotes AQP2 expression and causes apical polarization”.

In the case of Cc1ccccc1C(=O)Nc1ccc(C(=O)N2CCCC(O)c3cc(Cl)ccc32)c(C)c1 (stereo not drawn) [tolvaptan], the “formation of a cystoid structure” value ([2]; 10 μM tolvaptan together with 1 μM dDAVP) is reported as “the formation of a cystoid structure was suppressed”.
